Experimental data from ChEMBL document CHEMBL5365532, “Discovery of Triazinone Derivatives as Novel, Specific, and Direct NLRP3 Inflammasome Inhibitors for the Treatment of DSS-Induced Ulcerative Colitis” (J Med Chem, 2023).
The source made the active and inactive calls. No cut-off for these calls is given here.

Assays:
Mus musculus [1] = test: (§1) Antiinflammatory activity against DSS-induced ulcerative colitis C57BL/6 mouse model assessed as decrease in goblet cell loss in colon at 10 to 30 mg/kg, ip fed with DSS for 6 days followed by administration with compound for 5 days and measured on day 11 by H and E staining based analysis; assay type: functional, organism-based; conditions: dose 10-30 mg/kg, time 5.0 day
Mus musculus [2] = test: Antiinflammatory activity against DSS-induced ulcerative colitis C57BL/6 mouse model assessed as decrease in body weight loss at 10 to 30 mg/kg, ip fed with DSS for 6 days followed by administration with compound for 5 days; assay type: functional, organism-based; conditions: dose 10-30 mg/kg, time 5.0 day
THP-1 [3] = test: Inhibition of K+ efflux in PMA-differentiated human THP-1 cells at 0.8 to 45 uM pretreated with LPS for 3 hrs followed by incubation with compound for 40 mins and later stimulated with nigericin for 35 mins; assay type: functional, cell-based; conditions: dose 0.8-45 µM, time 75.0 min
THP-1 [4] = test: Effect on mitochondrial ROS production in PMA-differentiated human THP-1 cells at 0.2 to 45 uM pretreated with LPS for 3 hrs followed by incubation with compound for 40 mins and later stimulated with nigericin for 35 mins by MitoSOX staining based immunofluorescence analysis; assay type: functional, cell-based; conditions: dose 0.2-45 µM, time 75.0 min
[5] = Metabolic stability in human liver microsomes; assay type: ADME, Microsome
[6] = Tmax in BALB/c mouse at 10 mg/kg, iv; assay type: ADME, organism-based; conditions: in vivo
[7] = target: NACHT, LRR and PYD domains-containing protein 3 (Mus musculus) (UniProt Q8R4B8); test: Inhibition of NLRP3 inflammasome in C57BL/6 mouse BMDM cells assessed as inhibition of LPS/ATP-induced IL-1 beta secretion at 0.2 to 0.8 uM pretreated with LPS for 3 hrs followed by incubation with compound for 40 mins and later stimulated with ATP for 1 hr by ELISA; assay type: cell-based; conditions: dose 0.2-0.8 µM, time 100.0 min
NACHT, LRR and PYD domains-containing protein 3 (Mus musculus), sequence (Q8R4B8 whole entry, the tested form may be a part): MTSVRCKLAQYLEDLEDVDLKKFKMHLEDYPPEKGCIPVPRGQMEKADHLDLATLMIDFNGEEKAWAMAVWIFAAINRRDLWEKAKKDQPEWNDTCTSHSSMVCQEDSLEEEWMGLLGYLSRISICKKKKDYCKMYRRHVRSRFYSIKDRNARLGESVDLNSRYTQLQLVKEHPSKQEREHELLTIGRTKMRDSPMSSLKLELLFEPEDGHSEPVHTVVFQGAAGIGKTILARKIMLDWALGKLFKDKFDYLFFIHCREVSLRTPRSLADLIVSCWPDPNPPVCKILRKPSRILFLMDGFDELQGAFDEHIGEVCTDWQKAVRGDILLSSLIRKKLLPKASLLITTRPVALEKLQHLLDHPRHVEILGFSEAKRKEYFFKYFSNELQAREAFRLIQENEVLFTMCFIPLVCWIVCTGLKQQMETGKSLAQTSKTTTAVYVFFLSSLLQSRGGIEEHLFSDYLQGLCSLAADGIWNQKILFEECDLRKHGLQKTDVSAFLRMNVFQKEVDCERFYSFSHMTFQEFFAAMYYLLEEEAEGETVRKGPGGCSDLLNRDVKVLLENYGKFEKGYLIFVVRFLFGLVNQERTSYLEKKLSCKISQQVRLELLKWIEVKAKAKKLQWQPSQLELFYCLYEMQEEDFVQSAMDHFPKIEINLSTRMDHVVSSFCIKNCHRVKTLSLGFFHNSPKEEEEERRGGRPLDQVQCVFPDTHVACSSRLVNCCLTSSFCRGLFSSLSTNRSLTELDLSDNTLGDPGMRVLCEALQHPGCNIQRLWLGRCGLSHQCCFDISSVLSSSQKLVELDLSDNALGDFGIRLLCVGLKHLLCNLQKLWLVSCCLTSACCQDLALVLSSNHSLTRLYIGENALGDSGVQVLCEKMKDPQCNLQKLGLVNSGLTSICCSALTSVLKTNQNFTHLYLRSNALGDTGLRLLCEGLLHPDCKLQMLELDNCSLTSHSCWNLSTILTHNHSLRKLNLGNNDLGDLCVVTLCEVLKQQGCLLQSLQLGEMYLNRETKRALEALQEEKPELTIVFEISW

Mus musculus [8] = test: Antiinflammatory activity against DSS-induced ulcerative colitis C57BL/6 mouse model assessed as decrease in TNF-alpha level in colon at 10 to 30 mg/kg, ip fed with DSS for 6 days followed by administration with compound for 5 days and measured on day 11 by ELISA; assay type: functional, organism-based; conditions: dose 10-30 mg/kg, time 5.0 day
[9] = Half life in BALB/c mouse at 10 mg/kg, iv; assay type: ADME, organism-based; conditions: in vivo
Mus musculus [10] = test: as §1, with “inflammatory” for “goblet”, “infiltration” for “loss”; assay type: functional, organism-based; conditions: dose 10-30 mg/kg, time 5.0 day
[11] = Apparent clearance in BALB/c mouse at 10 mg/kg, po; assay type: ADME, organism-based; conditions: in vivo
[12] = target: T1, Interferon-inducible protein AIM2 (Mus musculus) (UniProt Q91VJ1); test: Inhibition of AIM2 inflammasome in C57BL/6 mouse BMDM cells assessed as inhibition of LPS/poly(dA:dT)-induced IL-1 beta secretion at 0.2 to 0.8 uM pretreated with LPS for 3 hrs followed by incubation with compound for 40 mins and later stimulated with poly(dA:dT) for 6 hrs by ELISA; assay type: cell-based; conditions: dose 0.2-0.8 µM, time 400.0 min
T1 sequence (whole entry): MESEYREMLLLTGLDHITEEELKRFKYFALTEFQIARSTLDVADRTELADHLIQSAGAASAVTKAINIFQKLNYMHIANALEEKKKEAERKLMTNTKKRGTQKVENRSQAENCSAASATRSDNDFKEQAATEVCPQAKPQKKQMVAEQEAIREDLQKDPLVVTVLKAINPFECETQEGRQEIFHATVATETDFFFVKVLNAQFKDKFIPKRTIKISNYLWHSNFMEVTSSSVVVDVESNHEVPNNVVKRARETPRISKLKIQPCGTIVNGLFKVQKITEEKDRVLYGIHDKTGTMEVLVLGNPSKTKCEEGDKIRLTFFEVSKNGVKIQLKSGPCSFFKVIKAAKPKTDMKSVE

THP-1 [13] = test: Effect on NLRP3 protein expression in PMA-differentiated human THP-1 cells at 0.2 to 0.8 uM pretreated with LPS for 3 hrs followed by incubation with compound for 40 mins and later stimulated with nigericin for 35 mins by western blot analysis; assay type: functional, cell-based; conditions: dose 0.2-0.8 µM, time 75.0 min

- half-life [5]: 31.5 min
- Tmax [6]: 4.8 min
- inhibition [7]: Active
- half-life [9]: 124 min
- CL/F [11]: 144 mL/min/kg
- inhibition [12]: inactive
Structure (SMILES): CC(C)c1nn(Cc2nnc(-c3ccc(C(F)(F)F)nc3Cl)o2)c(=O)c2cc3sc(Cl)cc3n12
- Activity (Mus musculus [1]): Active
- Activity (Mus musculus [2]): Active
- inhibition (THP-1 [3]): inactive
- Activity (THP-1 [4]): inactive
- Activity (Mus musculus [8]): Active
- Activity (Mus musculus [10]): Active
- Activity (THP-1 [13]): inactive
